Reference: PubChem BioAssay AID330 (DTP/NCI, 2004)
“And” between values parts separate entries of the source, which are not always exact repeats. Equal values may be shown once. Inconclusive results and toxic doses are left out.

System: P388 leukemia ip, CD2F1 mice, survival T/C
Assay: NCI In Vivo Anticancer Drug Screen. Data for tumor model P388 Leukemia (intraperitoneal) in CD2F1 (CDF1) mice
Settings: endpoint: median survival time, higher = longer survival
Method in brief: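 Mice carrying the transplanted tumor received test compound or vehicle. Survival was recorded in each group, and the value is the treated-group measurement divided by that of the vehicle-treated control group.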

[1] = dose: 400.0 mg/kg/injection, schedule: Q01DX001 (ip), vehicle: saline with Tween-80
[2] = dose: 50.0 mg/kg/injection, schedule: Q01DX009 (ip), vehicle: Klucel (hydroxypropylcellulose) (HPC)
[3] = dose: 100.0 mg/kg/injection, schedule: Q01DX009 (ip), vehicle: Klucel (hydroxypropylcellulose) (HPC)
[4] = dose: 200.0 mg/kg/injection, schedule: Q01DX009 (ip), vehicle: Klucel (hydroxypropylcellulose) (HPC)
[5] = dose: 60.0 mg/kg/injection, schedule: Q01DX005 (ip), vehicle: saline with Tween-80
[6] = dose: 240.0 mg/kg/injection, schedule: Q01DX005 (ip), vehicle: saline with Tween-80
[7] = dose: 120.0 mg/kg/injection, schedule: Q01DX005 (ip), vehicle: saline with Tween-80
[8] = dose: 50.0 mg/kg/injection, schedule: Q01DX009 (ip), vehicle: saline
[9] = dose: 100.0 mg/kg/injection, schedule: Q01DX009 (ip), vehicle: saline
[10] = dose: 200.0 mg/kg/injection, schedule: Q01DX009 (ip), vehicle: saline
[11] = dose: 50.0 mg/kg/injection, schedule: Q01DX005 (ip), vehicle: saline with Tween-80
[12] = dose: 25.0 mg/kg/injection, schedule: Q01DX009 (ip), vehicle: saline with Tween-80
[13] = dose: 50.0 mg/kg/injection, schedule: Q01DX009 (ip), vehicle: saline with Tween-80

Cc1ccc(S(=O)(=O)OC2=C3OC(=O)C4(C3C=CC=C2)C2C=CC=CC24)cc1 (stereo unspecified)
T/C (dose: 100.0 mg/kg/injection, schedule: Q01DX001 (ip), vehicle: saline with Tween-80): 96 % of control
T/C (dose: 200.0 mg/kg/injection, schedule: Q01DX001 (ip), vehicle: saline with Tween-80): 93 % of control
T/C [1]: 90 % of control

N#CC1C(=O)NC(=O)C(C#N)C1c1cccc(O)c1 (stereo unspecified)
T/C [2]: 96 % of control
T/C [3]: 101 % of control
T/C [4]: 97 % of control

O=C(OCOC(=O)N1CCOCC1)N1CCOCC1
T/C [5]: 105 % of control
T/C [6]: 94 % of control

CCOC(=O)C(C(=O)OCC)(C(=O)C(F)(F)C(F)(F)C(F)(F)C(F)(F)C(=O)C(C(=O)OCC)(C(=O)OCC)c1ccccc1)c1ccccc1
T/C [5]: 93 % of control
T/C [7]: 98 % of control
T/C [6]: 89 % of control

c1c(-c2cc(C3CC3)[nH]n2)n[nH]c1C1CC1
T/C (dose: 60.0 mg/kg/injection, schedule: Q01DX005 (ip), vehicle: saline): 101 % of control
T/C (dose: 120.0 mg/kg/injection, schedule: Q01DX005 (ip), vehicle: saline): 97 % of control
T/C (dose: 240.0 mg/kg/injection, schedule: Q01DX005 (ip), vehicle: saline): 100 % of control

O=C(O)C(O)C(O)C(O)C(=O)O (stereo unspecified)
T/C [8]: 101 % of control
T/C [9]: 107 % of control
T/C [10]: 91 % of control

CC(C)N(C(C)C)p1n(C(C)(C)C)n1C(C)(C)C
T/C (dose: 12.5 mg/kg/injection, schedule: Q01DX005 (ip), vehicle: Klucel (hydroxypropylcellulose) (HPC)): 108 % of control
T/C (dose: 25.0 mg/kg/injection, schedule: Q01DX005 (ip), vehicle: Klucel (hydroxypropylcellulose) (HPC)): 117 % of control
T/C (dose: 50.0 mg/kg/injection, schedule: Q01DX005 (ip), vehicle: Klucel (hydroxypropylcellulose) (HPC)): 110 % of control

COC(=O)C12c3ccccc3C3C(c4ccccc41)C32 (stereo unspecified)
T/C (dose: 100.0 mg/kg/injection, schedule: Q04DX003 (ip), vehicle: saline): 102 % of control
T/C (dose: 200.0 mg/kg/injection, schedule: Q04DX003 (ip), vehicle: saline): 96 % of control

CCCCCCCCCC(=O)C(=O)c1ccc(O)cc1O
T/C [2]: 94 % of control
T/C [3]: 93 % of control
T/C [4]: 94 % of control

Fc1c(F)c(-c2c(F)c(F)c(OCC3CO3)c(F)c2F)c(F)c(F)c1OCC1CO1 (stereo unspecified)
T/C [2]: 98 % of control
T/C [3]: 103 % of control
T/C [4]: 102 % of control

Clc1cnc2n[se]nc2c1
T/C (dose: 25.0 mg/kg/injection, schedule: Q04DX002 (ip), vehicle: saline): 106 % of control
T/C (dose: 50.0 mg/kg/injection, schedule: Q04DX002 (ip), vehicle: saline): 116 % of control
T/C (dose: 100.0 mg/kg/injection, schedule: Q04DX002 (ip), vehicle: saline): 105 % of control and 114 % of control

CCCCN=NNCCCC
T/C (dose: 12.5 mg/kg/injection, schedule: Q01DX005 (ip), vehicle: saline with Tween-80): 110 % of control
T/C [11]: 151 % of control

CCOCN(COCC)c1ccccn1
T/C [12]: 100 % of control
T/C [13]: 105 % of control and 116 % of control

O=N[O-].O=N[O-].[Co].[NH-]CC[NH-].[NH-]CC[NH-]
T/C (dose: 6.25 mg/kg/injection, schedule: Q04DX003 (ip), vehicle: water): 98 % of control
T/C (dose: 12.5 mg/kg/injection, schedule: Q04DX003 (ip), vehicle: distilled water + Tween-80): 96 % of control
T/C (dose: 12.5 mg/kg/injection, schedule: Q04DX003 (ip), vehicle: water): 101 % of control
T/C (dose: 25.0 mg/kg/injection, schedule: Q04DX003 (ip), vehicle: water): 102 % of control
T/C (dose: 50.0 mg/kg/injection, schedule: Q04DX003 (ip), vehicle: distilled water + Tween-80): 99 % of control
T/C (dose: 50.0 mg/kg/injection, schedule: Q04DX003 (ip), vehicle: water): 96 % of control
T/C (dose: 100.0 mg/kg/injection, schedule: Q04DX003 (ip), vehicle: distilled water + Tween-80): 108 % of control

CC(=O)OCC1OC(n2cnc3c(=S)nc[nH]c32)C(OC(C)=O)C1OC(C)=O (stereo unspecified)
T/C (dose: 100.0 mg/kg/injection, schedule: Q04DX003 (ip), vehicle: saline with Tween-80): 109 % of control
T/C (dose: 200.0 mg/kg/injection, schedule: Q04DX003 (ip), vehicle: saline with Tween-80): 109 % of control
T/C (dose: 400.0 mg/kg/injection, schedule: Q04DX003 (ip), vehicle: saline with Tween-80): 118 % of control

O=C1OCCN1c1cccc2ccccc12
T/C [5]: 95 % of control
T/C [7]: 96 % of control
T/C [6]: 93 % of control

NC(=O)c1[nH]c(N=Nc2ccc(S(N)(=O)=O)cc2)nc1N
T/C (dose: 100.0 mg/kg/injection, schedule: Q04DX003 (ip), vehicle: Klucel (hydroxypropylcellulose) (HPC)): 100 % of control
T/C (dose: 200.0 mg/kg/injection, schedule: Q04DX003 (ip), vehicle: Klucel (hydroxypropylcellulose) (HPC)): 101 % of control
T/C (dose: 400.0 mg/kg/injection, schedule: Q04DX003 (ip), vehicle: Klucel (hydroxypropylcellulose) (HPC)): 94 % of control

O=C(Nc1ccccc1)Nc1c2c(nc3ccccc13)CCCCC2
T/C [11]: 86 % of control
T/C (dose: 100.0 mg/kg/injection, schedule: Q01DX005 (ip), vehicle: saline with Tween-80): 89 % of control
T/C (dose: 200.0 mg/kg/injection, schedule: Q01DX005 (ip), vehicle: saline with Tween-80): 90 % of control

O=c1c(Cl)c2cc3c(cc2c2ccccc12)nc1ccccc1n3-c1ccccc1
T/C [1]: 89 % of control

CCCCOc1ccc(Nc2c3ccccc3nc3ccccc23)cc1
T/C (dose: 12.5 mg/kg/injection, schedule: Q01DX009 (ip), vehicle: saline with Tween-80): 98 % of control and 91 % of control
T/C [12]: 98 % of control and 106 % of control
T/C [13]: 121 % of control

COc1ccc(-n2cnc3c(cnn3C)c2=O)cc1
T/C (dose: 60.0 mg/kg/injection, schedule: Q01DX005 (ip), vehicle: Klucel (hydroxypropylcellulose) (HPC)): 100 % of control
T/C (dose: 120.0 mg/kg/injection, schedule: Q01DX005 (ip), vehicle: Klucel (hydroxypropylcellulose) (HPC)): 91 % of control

COc1ccc(NC(=O)Oc2ccc3c(C)cc(=O)oc3c2)c(OC)c1
T/C (dose: 100.0 mg/kg/injection, schedule: Q01DX009 (ip), vehicle: saline with Tween-80): 122 % of control
T/C (dose: 200.0 mg/kg/injection, schedule: Q01DX009 (ip), vehicle: saline with Tween-80): 121 % of control
T/C (dose: 400.0 mg/kg/injection, schedule: Q01DX009 (ip), vehicle: saline with Tween-80): 91 % of control

O=c1[nH]c(-c2ccccc2)nc2nc3ccc([N+](=O)[O-])cc3[n+]([O-])c12
T/C [8]: 93 % of control
T/C [9]: 92 % of control
T/C [10]: 97 % of control

Cc1[nH]c(=O)[nH]c(=O)c1/C=C/C(=O)NC(CO)CSCc1ccccc1 (stereo unspecified)
T/C (dose: 6.25 mg/kg/injection, schedule: Q01DX009 (ip), vehicle: other): 94 % of control
T/C (dose: 12.5 mg/kg/injection, schedule: Q01DX009 (ip), vehicle: other): 94 % of control
T/C (dose: 25.0 mg/kg/injection, schedule: Q01DX009 (ip), vehicle: other): 94 % of control
T/C (dose: 50.0 mg/kg/injection, schedule: Q01DX009 (ip), vehicle: other): 88 % of control
T/C (dose: 100.0 mg/kg/injection, schedule: Q01DX009 (ip), vehicle: other): 87 % of control
T/C (dose: 200.0 mg/kg/injection, schedule: Q01DX009 (ip), vehicle: other): 98 % of control
T/C (dose: 400.0 mg/kg/injection, schedule: Q01DX009 (ip), vehicle: other): 95 % of control

CNC(=O)OCc1cocc1COC(=O)NC
T/C (dose: 12.5 mg/kg/injection, schedule: Q01DX009 (ip), vehicle: distilled water + Tween-80): 106 % of control
T/C (dose: 25.0 mg/kg/injection, schedule: Q01DX009 (ip), vehicle: distilled water + Tween-80): 101 % of control
T/C (dose: 50.0 mg/kg/injection, schedule: Q01DX009 (ip), vehicle: distilled water + Tween-80): 109 % of control
T/C (dose: 100.0 mg/kg/injection, schedule: Q01DX009 (ip), vehicle: distilled water + Tween-80): 117 % of control

c1ccc2c(c1)C[n+]1ccc3ccccc3c1-c1c3ccccc3cc[n+]1C2
T/C (dose: 12.5 mg/kg/injection, schedule: Q01DX001 (ip), vehicle: saline): 100 % of control
T/C (dose: 25.0 mg/kg/injection, schedule: Q01DX001 (ip), vehicle: saline): 107 % of control

O=c1cc(-c2ccccc2)nc(Sc2ccc([N+](=O)[O-])cc2[N+](=O)[O-])[nH]1
T/C [2]: 98 % of control
T/C [3]: 98 % of control
T/C [4]: 93 % of control

O=C1C(Cl)=C(NCCO)C(=O)c2ccccc21
T/C (dose: 25.0 mg/kg/injection, schedule: Q01DX009 (ip), vehicle: Klucel (hydroxypropylcellulose) (HPC)): 101 % of control
T/C [2]: 106 % of control
T/C [3]: 112 % of control
T/C [4]: 102 % of control
